The test system of this test is GI-ARS model (partial shielding irradiation). Description: Clinical signs and survival in rodent model of gastrointestinal acute radiation syndrome (GI-ARS). Type of test: in vivo, C57BL/6J mice. As to the method: The subjects for the two studies outlined here were (A) Study 1: 20 male C57BL/6J mice (8 weeks of age; 23-28 g) and (B) Study 2: 16 male C57BL/6J mice (8 weeks of age; 23-28 g). Following arrival, all animals were subjected to a health assessment and evaluation was performed in accordance with the standard operating procedures and by technical staff working under the supervision of the clinical veterinarian. An acclimation period of at least 11 days was allowed between receipt of the animals and irradiation to accustom the animals to the laboratory environment.
A solution formulation of 25HC3S sodium salt and its respective vehicle was used for the study. The Vehicle was a solution of 4% (w/v) hydroxypropyl betadex in 75% (v/v) of 0.9% (w/v) sodium chloride and 25% (v/v) sterile water. 25HC3S sodium salt was pre-dissolved into the Vehicle solution to result in a drug concentration of 5 mg/mL. The 25HC3S solution was ready-to-use at the start of dosing. In Study 1, the vehicle was stored at 2-8° C. whereas the 25HC3S solution was stored at room temperature prior and throughout the study duration; in Study 2, both vehicle and 25HC3S solutions were stored at 2-8° C.
Partial shielding irradiation (PSI) exposure at a high radiation dose (>10Gy) is an established approach to mimic GI-ARS in mice. Animals were exposed to whole-body irradiation with partial shielding (Day 0) in a custom designed restrainer where their left pelvic limb was extended and maintained in position with an elastic band. The left pelvic limb was shielded with a cerrobend structure. Animals received a whole body irradiation dose with partial shielding of 15.78 Gy (LD50/22) for Study 1 whereas mice were exposed to 15.16 Gy (LD25/22) in Study 2. The dose rate of the ^60Co gamma source was fixed at approximately 60 cGy per minute. The in-life portion of both the studies after PSI was 22 days.
Study 1: Mice (N=20/group) were administered once daily with 25HC3S (or vehicle) for 7 consecutive days starting on the day following irradiation (Day 1) by subcutaneous injection between scapulas using a 27G needle attached to a syringe. The dose volume was 10 mL/kg for all dose routes and the dose was adjusted based on the most recent body weight. Study 2: Mice (N=16/group) were administered with 25HC3S (or vehicle) for a total of […]. Animals were given drug (or vehicle) once on the day following irradiation (Day 1) and once on Day 4 by subcutaneous injection between scapulas using a 27G needle attached to a syringe. The dose volume was 10 mL/kg for all dose routes and the dose was adjusted based on the most recent body weight.
Mortality checks were recorded concomitantly with the cage-side observations, during all phases of the study. Mortality checks for all animals were also recorded at least once during the night from Day 5 through Day 8. Clinical signs (ill health, behavioral changes, fur color/consistency changes etc.) were also recorded on all surviving animals twice daily throughout observation period (described in Table 10). Additional clinical observations were performed when deemed necessary. All observations were recorded as cage side clinical signs or detailed clinical examination when possible. A detailed clinical examination was performed on each animal at least as follows: prior to animal assignment, one day prior to irradiation (Day −1) then every 3 days throughout the observation period. […]

Experimental findings from patent publication US20230047788A1, “COMPOSITIONS COMPRISING 5-CHOLESTEN-3, 25-DIOL, 3-SULFATE (25HC3S) OR PHARMACEUTICALLY ACCEPTABLE SALT THEREOF AND AT LEAST ONE CYCLIC OLIGOSACCHARIDE” (Virginia Commonwealth University, priority 2016, published 2023) are described below.

On to `C[C@H](CCCC(C)(C)O)[C@H]1CC[C@H]2[C@@H]3CC=C4C[C@@H](OS(=O)(=O)[O-])CC[C@]4(C)[C@H]3CC[C@]12C.[Na+]` [25HC3S, 5-cholesten-3, 25-diol, 3-sulfate], for which the Survival is, setting by setting: (Study 1, 15.78 Gy, by Day 7) 45%; (Study 2, 15.16 Gy, sc doses on Day 1 and Day 4, 50 mg/kg/dose) 81.25%. Moreover, the “mortality, treatment vs vehicle group” value (Study 1, 15.78 Gy, sc once daily for 7 days from Day 1) was “not significant”. Moreover, under “Study 1, Days 5-22, animals that survived the entire in-life portion”, the “average number of clinical signs/mice vs vehicle-treated group” value is reported as “statistically lower”. For the same molecule, the “Survival improved by (vs vehicle)” value (Study 2, 15.16 Gy) was 18.75%.
